Results taken from the Kinase Knowledgebase extract (Sharma et al. 2016).
pIC50: −log10 of the molar value.

Molecular target: EGFR (UniProt P00533)
Sequence (P00533 whole entry, looked up): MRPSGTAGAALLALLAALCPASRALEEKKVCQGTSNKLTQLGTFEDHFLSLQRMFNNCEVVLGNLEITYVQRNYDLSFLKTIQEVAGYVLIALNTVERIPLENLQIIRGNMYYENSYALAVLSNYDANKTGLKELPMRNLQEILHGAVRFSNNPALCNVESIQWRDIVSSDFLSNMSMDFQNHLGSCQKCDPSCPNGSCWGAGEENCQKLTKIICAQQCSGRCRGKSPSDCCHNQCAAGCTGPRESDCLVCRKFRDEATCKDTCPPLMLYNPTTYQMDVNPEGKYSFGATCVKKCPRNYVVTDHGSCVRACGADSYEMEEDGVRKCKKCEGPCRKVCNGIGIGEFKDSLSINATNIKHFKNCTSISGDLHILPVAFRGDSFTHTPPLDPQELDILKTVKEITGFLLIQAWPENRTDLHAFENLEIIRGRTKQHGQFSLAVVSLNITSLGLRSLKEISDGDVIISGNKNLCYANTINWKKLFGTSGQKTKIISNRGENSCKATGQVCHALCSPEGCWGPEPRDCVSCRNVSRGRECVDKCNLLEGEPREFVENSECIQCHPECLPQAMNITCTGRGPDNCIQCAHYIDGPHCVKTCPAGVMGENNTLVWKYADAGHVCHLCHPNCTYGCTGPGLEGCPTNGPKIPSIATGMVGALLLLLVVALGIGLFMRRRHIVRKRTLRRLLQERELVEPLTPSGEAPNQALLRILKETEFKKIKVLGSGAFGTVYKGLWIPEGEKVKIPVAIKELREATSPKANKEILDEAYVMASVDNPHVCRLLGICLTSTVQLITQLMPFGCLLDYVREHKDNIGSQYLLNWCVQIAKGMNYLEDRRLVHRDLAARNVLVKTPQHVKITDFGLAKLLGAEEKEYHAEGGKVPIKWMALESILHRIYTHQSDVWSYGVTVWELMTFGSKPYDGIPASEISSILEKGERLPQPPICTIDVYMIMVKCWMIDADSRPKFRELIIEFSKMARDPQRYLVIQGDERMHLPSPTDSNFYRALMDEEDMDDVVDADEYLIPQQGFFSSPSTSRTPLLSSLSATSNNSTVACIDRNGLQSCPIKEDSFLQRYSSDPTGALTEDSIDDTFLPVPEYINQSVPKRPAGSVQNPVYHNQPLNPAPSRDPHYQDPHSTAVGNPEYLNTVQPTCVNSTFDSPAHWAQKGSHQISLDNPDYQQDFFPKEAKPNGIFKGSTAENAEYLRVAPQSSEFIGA

| pIC50 | SMILES |
| --- | --- |
| > 7.30 | COc1cc2c(Nc3ccc(Cl)c(Cl)c3)ncnc2cc1OCC1CN(C(=O)c2c(F)ccc(F)c2F)CCO1 (centres undefined) |
| > 7.30 | CCN1CCc2nc(COc3cc4ncnc(Nc5ccc(Cl)c(Cl)c5)c4cc3OC)sc2C1 |
| > 7.30 | COc1cc2c(Nc3ccc(F)c(Cl)c3F)ncnc2cc1OCC1CN(C)C(C)(C)CO1 (centres undefined) |
| > 7.30 | COc1cc2c(Nc3ccc(Cl)c(Cl)c3)ncnc2cc1OCC1CN(C(=O)CC(=O)O)CCO1 (centres undefined) |
| > 7.30 | COc1cc2c(Nc3ccc(Br)c(Cl)c3Cl)ncnc2cc1OC[C@@H]1CN2CCOC[C@H]2CO1 |
| > 7.30 | COc1cc2c(Nc3ccc(F)cc3C(F)(F)F)ncnc2cc1O[C@@H]1CO[C@@H]2[C@H]1OC[C@H]2F |
| > 7.30 | COc1cc2c(Nc3ccc(Cl)c(Cl)c3)ncnc2cc1OCC1CN(CCF)CCO1 (centres undefined) |
| > 7.30 | COc1cc2c(Nc3ccc(Cl)c(Cl)c3)ncnc2cc1OCc1csc([C@@H]2CCCN2)n1 |
| 6.00 to 7.30 | COc1cc2c(Nc3ccc(Cl)c(Cl)c3)ncnc2cc1OCc1nc(-c2ccc(C(C)(C)C)cc2)no1 |
| > 7.30 | COc1cc2c(Nc3ccc(Cl)c(Cl)c3)ncnc2cc1OCC1CN(C(C)=O)CCO1 (centres undefined) |
| > 7.30 | COc1cc2c(Nc3cc(Cl)c(Cl)cc3F)ncnc2cc1OC[C@H]1CN2CCOC[C@H]2CO1 |
| > 7.30 | COc1cc2c(Nc3ccc(F)c(Cl)c3F)ncnc2cc1OC[C@H]1CN2CCOC[C@H]2CO1 |
| > 7.30 | CCN1CCCCC1c1nc(COc2cc3ncnc(Nc4ccc(Cl)c(Cl)c4)c3cc2OC)no1 (centres undefined) |
| > 7.30 | COc1cc2c(Nc3ccc(Br)cc3F)ncnc2cc1OCC1CN(C)CCO1 (centres undefined) |
| > 7.30 | COc1cc2c(Nc3ccc(Cl)c(Cl)c3)ncnc2cc1OCC1CN(C2CCOCC2)CCO1 (centres undefined) |
| > 7.30 | COc1cc2c(Nc3ccc(Cl)c(Cl)c3)ncnc2cc1OCC1CN(CC2CC2)CCO1 (centres undefined) |
| > 7.30 | COc1cc2c(Nc3ccc(Cl)c(Cl)c3)ncnc2cc1OCC1CN(C(=O)c2cccc3ccccc23)CCO1 (centres undefined) |
| > 7.30 | COc1cc2c(Nc3ccc(Cl)c(Cl)c3)ncnc2cc1OCC1CN(C(=O)c2ccoc2)CCO1 (centres undefined) |
| > 7.30 | COc1cc2c(Nc3ccc(Cl)c(Cl)c3)ncnc2cc1OCc1csc(N2CCNCC2)n1 |
| > 7.30 | COc1cc2c(Nc3ccc(Br)c(Cl)c3)ncnc2cc1O[C@H]1CO[C@@H]2[C@H]1OC[C@@H]2O |
| > 7.30 | COc1cc2c(Nc3ccc(Br)c(Cl)c3)ncnc2cc1O[C@H]1CO[C@@H]2[C@H]1OC[C@@H]2NS(C)(=O)=O |
| > 7.30 | COc1cc2c(Nc3ccc(Cl)c(Cl)c3)ncnc2cc1OCC(=O)N1CCOCC1 |
| > 7.30 | COc1cc2c(Nc3ccc(Cl)c(Cl)c3)ncnc2cc1OCCC1CCCCC1 |

| pIC50 | SMILES |
| --- | --- |
| > 7.30 | CCCCS(=O)(=O)N1CCOC(COc2cc3ncnc(Nc4ccc(Cl)c(Cl)c4)c3cc2OC)C1 (centres undefined) |
| > 7.30 | COc1cc2c(Nc3cc(Cl)c(Cl)cc3F)ncnc2cc1OC[C@@H]1CN2CCOC[C@H]2CO1 |
| > 7.30 | COc1cc2c(Nc3cc(Cl)c(Cl)c(Cl)c3)ncnc2cc1O[C@@H]1CO[C@@H]2[C@H]1OC[C@H]2F |
| > 7.30 | COc1cc2c(Nc3ccc(Cl)c(Cl)c3)ncnc2cc1OC[C@H]1C[C@@H]2CN(C)C[C@@H]2C1 |
| > 7.30 | COc1cc2c(Nc3ccc(Cl)c(Cl)c3)ncnc2cc1OCC1CN(C)C(C)(C)C(=O)O1 (centres undefined) |
| > 7.30 | COc1cc2c(Nc3ccc(Cl)c(Cl)c3)ncnc2cc1OCC1CN(S(=O)(=O)c2ccc(C)cc2)CCO1 (centres undefined) |
| > 7.30 | COc1cc2c(Nc3ccc(Cl)c(Cl)c3)ncnc2cc1OC[C@@H]1CN2CCC[C@@H]2CO1 |
| > 7.30 | COC(=O)CCN1CCOC(COc2cc3ncnc(Nc4ccc(Cl)c(Cl)c4)c3cc2OC)C1 (centres undefined) |
| > 7.30 | COc1cc2c(Nc3ccc(Cl)c(Cl)c3)ncnc2cc1OCC1CN(CC2CCCCC2)CCCO1 (centres undefined) |
| > 7.30 | CCCCc1ccc(C(=O)N2CCOC(COc3cc4ncnc(Nc5ccc(Cl)c(Cl)c5)c4cc3OC)C2)cc1 (centres undefined) |
| > 7.30 | CCN1CCCC1c1nc(COc2cc3ncnc(Nc4ccc(Cl)c(Cl)c4)c3cc2OC)no1 (centres undefined) |
| > 7.30 | CC#CCN1CCOC(COc2cc3ncnc(Nc4ccc(Cl)c(Cl)c4)c3cc2OC)C1 (centres undefined) |
| > 7.30 | COc1cc2c(Nc3ccc(Br)c(Cl)c3F)ncnc2cc1OC[C@@H]1CN2CCOC[C@H]2CO1 |
| > 7.30 | CCOc1cc2c(Nc3ccc(Cl)c(Cl)c3)ncnc2cc1OCC1CN(C)CCO1 (centres undefined) |
| > 7.30 | COc1cc2c(Nc3ccc(Cl)c(Cl)c3Cl)ncnc2cc1O[C@H]1CO[C@H]2[C@@H]1OC[C@@H]2OC |
| > 7.30 | COc1cc2c(Nc3cc(F)c(Br)c(Cl)c3)ncnc2cc1O[C@@H]1CO[C@@H]2[C@H]1OC[C@H]2F |
| > 7.30 | COc1cc2c(Nc3cccc(Cl)c3F)ncnc2cc1O[C@H]1CO[C@@H]2[C@H]1OC[C@@H]2F |
| > 7.30 | CCCCCC(=O)N1CCOC(COc2cc3ncnc(Nc4ccc(Cl)c(Cl)c4)c3cc2OC)C1 (centres undefined) |
| > 7.30 | COC[C@@]1(OC)CO[C@@H]2[C@H]1OC[C@H]2Oc1cc2ncnc(Nc3ccc(Br)c(Cl)c3)c2cc1OC |
| > 7.30 | COc1cc2c(Nc3c(F)cccc3F)ncnc2cc1O[C@@H]1CO[C@@H]2[C@H]1OC[C@H]2F |
| > 7.30 | COc1cc2c(Nc3ccc(Cl)c(Cl)c3F)ncnc2cc1OCC1CN(C)CCO1 (centres undefined) |
| > 7.30 | COc1cc2c(Nc3ccc(Br)cc3Br)ncnc2cc1OCC1CN(C)CCO1 (centres undefined) |
| > 7.30 | COc1cc2c(Nc3ccc(Br)cc3C)ncnc2cc1OCC1CN(C)CCO1 (centres undefined) |

| pIC50 | SMILES |
| --- | --- |
| > 7.30 | COc1cc2c(Nc3ccc(Cl)c(Cl)c3)ncnc2cc1OCC1CN(C(=O)C(C)(C)C)CCO1 (centres undefined) |
| > 7.30 | COc1cc2c(Nc3ccc(Cl)c(Cl)c3F)ncnc2cc1O[C@@H]1CO[C@@H]2[C@H]1OC[C@H]2F |
| > 7.30 | COc1cc2c(Nc3ccc(Cl)c(Cl)c3Cl)ncnc2cc1O[C@@H]1CO[C@@H]2[C@H]1OC[C@H]2F |
| > 7.30 | COc1cc2c(Nc3cc(Cl)c(Cl)cc3F)ncnc2cc1OC[C@@H]1CN2CCC[C@H]2CO1 |
| > 7.30 | COc1cc2c(Nc3ccc(Br)c(Cl)c3)ncnc2cc1O[C@H]1CO[C@H]2[C@@H]1OC[C@]2(O)C(F)(F)F |
| > 7.30 | COc1cc2c(Nc3ccc(Br)cc3Cl)ncnc2cc1OCC1CN(C)CCO1 (centres undefined) |
| > 7.30 | COc1cc2c(Nc3ccc(Cl)cc3)ncnc2cc1O[C@@H]1CO[C@@H]2[C@H]1OC[C@H]2F |
| > 7.30 | COc1cc2c(Nc3cc(Cl)c(Cl)c(Cl)c3)ncnc2cc1OCC1CN(C)CCO1 (centres undefined) |
| > 7.30 | COc1cc2c(Nc3ccc(Cl)c(Cl)c3)ncnc2cc1OCC1CN(CCCCCCO)CCO1 (centres undefined) |
| > 7.30 | COc1cc2c(Nc3cc(Cl)c(Cl)cc3F)ncnc2cc1OC[C@@H]1CO[C@H]2[C@@H]1OC[C@@H]2O |
| > 7.30 | CCOc1cc2c(Nc3ccc(Cl)c(Cl)c3)ncnc2cc1OCC1CNCCO1 (centres undefined) |
| > 7.30 | COc1cc2c(Nc3ccc(Cl)c(Cl)c3)ncnc2cc1OCC1CN(C(=O)CCc2ccccc2)CCO1 (centres undefined) |
| > 7.30 | COc1cc2c(Nc3cccc(C(F)(F)F)c3F)ncnc2cc1O[C@@H]1CO[C@@H]2[C@H]1OC[C@H]2F |
| > 7.30 | COc1cc2c(Nc3ccc(N4CCN(C)CC4)c(Cl)c3Cl)ncnc2cc1O[C@H]1CO[C@@H]2[C@H]1OC[C@@H]2F |
| > 7.30 | COc1cc2c(Nc3ccc(C(F)(F)F)cc3Br)ncnc2cc1O[C@@H]1CO[C@@H]2[C@H]1OC[C@H]2F |
| > 7.30 | COc1cc2c(Nc3ccc(Cl)c(Cl)c3)ncnc2cc1OCC1CN(CCC2OCCCO2)CCO1 (centres undefined) |
| > 7.30 | CCCC(CCC)C(=O)N1CCOC(COc2cc3ncnc(Nc4ccc(Cl)c(Cl)c4)c3cc2OC)C1 (centres undefined) |
| > 7.30 | CCN1CCN(CC)C(COc2cc3ncnc(Nc4ccc(Cl)c(Cl)c4)c3cc2OC)C1 (centres undefined) |
| > 7.30 | CCN(CC)c1ccc(-c2csc(COc3cc4ncnc(Nc5ccc(Cl)c(Cl)c5)c4cc3OC)n2)cc1 |
| > 7.30 | COc1cc2c(Nc3ccc(Cl)c(Cl)c3N3CCN(C)CC3)ncnc2cc1O[C@H]1CO[C@@H]2[C@H]1OC[C@@H]2F |
| > 7.30 | COc1cc2c(Nc3ccc(Cl)c(Cl)c3F)ncnc2cc1OC[C@H]1C[C@@H]2CN(C)C[C@@H]2C1 |
| 6.00 to 7.30 | COc1cc2c(Nc3ccc(Cl)c(Cl)c3)ncnc2cc1OCc1csc2ccc(Cl)cc12 |
| > 7.30 | COc1cc2c(Nc3ccc(Cl)c(Cl)c3)ncnc2cc1OCc1noc(OCc2ccccc2)n1 |

| pIC50 | SMILES |
| --- | --- |
| > 7.30 | COc1cc2c(Nc3ccc(Cl)c(Cl)c3)ncnc2cc1OCC1CN(Cc2ccccn2)CCO1 (centres undefined) |
| > 7.30 | COc1cc2c(Nc3ccc(N4CCN(C)CC4)c(F)c3)ncnc2cc1O[C@H]1CO[C@@H]2[C@H]1OC[C@@H]2F |
| > 7.30 | COc1cc2c(Nc3ccc(Cl)c(Cl)c3)ncnc2cc1OCC1CNCC(C)(C)O1 (centres undefined) |
| > 7.30 | COc1cc2c(Nc3ccc(Br)c(Cl)c3Cl)ncnc2cc1OC[C@H]1C[C@@H]2CN(C)C[C@@H]2C1 |
| > 7.30 | COc1cc2c(Nc3ccc(F)c(C(F)(F)F)c3)ncnc2cc1O[C@@H]1CO[C@@H]2[C@H]1OC[C@H]2F |
| > 7.30 | COc1cc2c(Nc3ccc(Cl)c(Cl)c3)ncnc2cc1OCC1CN(C(C)=O)CCCO1 (centres undefined) |
| > 7.30 | COc1cc2c(Nc3ccc(Cl)c(Cl)c3)ncnc2cc1OCC1CN(CCCCCC#N)CCO1 (centres undefined) |
| > 7.30 | COc1cc2c(Nc3ccc(C)c(Br)c3)ncnc2cc1OCC1CN(C)CCO1 (centres undefined) |
| > 7.30 | COc1cc2c(Nc3ccc(Br)c(Cl)c3Cl)ncnc2cc1OC[C@@H]1CN2CCC[C@H]2CO1 |
| > 7.30 | COc1cc2c(Nc3ccc(Cl)c(Cl)c3F)ncnc2cc1OCC1CN(C)C(C)(C)CO1 (centres undefined) |
| > 7.30 | COc1cc2c(Nc3ccc(Cl)c(Cl)c3)ncnc2cc1OCc1csc(C2CCCN(C)C2)n1 (centres undefined) |
| > 7.30 | COc1cc2c(Nc3ccc(Cl)c(Cl)c3F)ncnc2cc1OC[C@@H]1CN2CCC[C@H]2C(=O)N1C |
| > 7.30 | CCC(=O)N1CCOC(COc2cc3ncnc(Nc4ccc(Cl)c(Cl)c4)c3cc2OC)C1 (centres undefined) |
| > 7.30 | COc1cc2c(Nc3cc(Cl)c(Br)cc3F)ncnc2cc1OCC1CO[C@@H]2[C@@H](OC)CO[C@H]12 (some centres undefined) |
| > 7.30 | COc1cc2c(Nc3cc(Cl)c(Br)cc3F)ncnc2cc1O[C@@H]1CO[C@@H]2[C@H]1OC[C@H]2F |
| > 7.30 | COc1cc2c(Nc3ccc(Br)c(Cl)c3F)ncnc2cc1OC[C@H]1C[C@@H]2CN(C)C[C@@H]2C1 |
| > 7.30 | COc1cc2c(Nc3cc(Cl)c(Br)cc3F)ncnc2cc1OC[C@@H]1CN2CCC[C@H]2CO1 |
| > 7.30 | COc1cc2c(Nc3ccc(Cl)c(Cl)c3)ncnc2cc1OCC1CN(CC=C(C)C)CCO1 (centres undefined) |
| > 7.30 | COc1cc2c(Nc3ccc(Cl)c(Cl)c3)ncnc2cc1OCc1nnc(-c2ccc(C)cc2)o1 |
| > 7.30 | COCCNC(=NC#N)N1CCOC(COc2cc3ncnc(Nc4ccc(Cl)c(Cl)c4)c3cc2OC)C1 (centres undefined) |
